PubChem BioAssay AID1963450 (Molecular Pharmacology Branch, DTP, NCI, 2024)

Test system: 556581-035-R-J1-PDC complex spheroid growth
Test: Anticancer human tumor 556581-035-R-J1-PDC patient-derived ovarian carcinoma cell line growth inhibition [Asc]
Details: for IC50: curve of first compound; for viability, T/C: stronger effect = lower value
Method in brief: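 Tumor cells were grown as multicellular spheroids with stromal HUVEC and mesenchymal stem cells and treated singly or in combination. Concentrations fell in half-log steps from the clinical Cmax, or from 10 microM where none was known.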

[1] = second compound 0.1 µM, first compound 0.000949 µM
[2] = second compound 0.1 µM, first compound 0.003 µM
[3] = second compound 0.1 µM, first compound 0.00949 µM
[4] = second compound 0.1 µM, first compound 0.03 µM
[5] = second compound 0.1 µM, first compound 0.0949 µM
[6] = second compound 0.1 µM, first compound 0.3 µM
[7] = second compound 0.316 µM, first compound 0.000949 µM
[8] = second compound 0.316 µM, first compound 0.003 µM
[9] = second compound 0.316 µM, first compound 0.00949 µM
[10] = second compound 0.316 µM, first compound 0.03 µM
[11] = second compound 0.316 µM, first compound 0.0949 µM
[12] = second compound 0.316 µM, first compound 0.3 µM
[13] = second compound 1 µM, first compound 0.000949 µM
[14] = second compound 1 µM, first compound 0.003 µM
[15] = second compound 1 µM, first compound 0.00949 µM
[16] = second compound 1 µM, first compound 0.03 µM
[17] = second compound 1 µM, first compound 0.0949 µM
[18] = second compound 1 µM, first compound 0.3 µM
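Note: spheroids exposed to agents for 7 days before viability read.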

For NC(=O)C(=Cn1cnc(-c2cc(C(F)(F)F)cc(C(F)(F)F)c2)n1)c1cncnc1 + Cc1c(S(C)(=O)=O)c(-c2cc(F)cc(N3CCN(c4ccc(NS(=O)(=O)c5ccc(NC(CCN6CCC(C(=O)OCCCP(=O)(O)O)CC6)CSc6ccccc6)c(S(=O)(=O)C(F)(F)F)c5)cc4)CC3)c2)c(-c2ccc(Cl)cc2)n1C(C)C, the IC50 (second compound 0.1 µM) was over 300 nM, the IC50 (second compound 0.316 µM) was over 300 nM and the IC50 (second compound 1 µM) was over 300 nM. It also gave an IC50 (second compound 3.16 µM) of 148 nM, an IC50 (second compound 10 µM) of 87.6 nM and a viability, T/C [1] of 70.9%. It also gave a viability, T/C [2] of 72.3%, a viability, T/C [3] of 75% and a viability, T/C [4] of 57.8%. It also gave a viability, T/C [5] of 75.9%, a viability, T/C [6] of 66.1% and a viability, T/C [7] of 81.2%. For the same molecule, the viability, T/C [8] was 75.6%, the viability, T/C [9] was 80.3% and the viability, T/C [10] was 69.5%. The viability, T/C [11] was 66.3%, the viability, T/C [12] was 52.9% and the viability, T/C [13] was 78%. The viability, T/C [14] was 63.5%, the viability, T/C [15] was 63.8% and the viability, T/C [16] was 68.5%. The viability, T/C [17] was 52.9%, the viability, T/C [18] was 59.5% and the viability, T/C (second compound 3.16 µM, first compound 0.000949 µM) was 57.2%. The viability, T/C (second compound 3.16 µM, first compound 0.003 µM) was 61.2%, the viability, T/C (second compound 3.16 µM, first compound 0.00949 µM) was 70.3% and the viability, T/C (second compound 3.16 µM, first compound 0.03 µM) was 63.9%. For the same molecule, the viability, T/C (second compound 3.16 µM, first compound 0.0949 µM) was 59.6%, the viability, T/C (second compound 3.16 µM, first compound 0.3 µM) was 34% and the viability, T/C (second compound 10 µM, first compound 0.000949 µM) was 73%. The viability, T/C (second compound 10 µM, first compound 0.003 µM) was 63.9%, the viability, T/C (second compound 10 µM, first compound 0.00949 µM) was 61% and the viability, T/C (second compound 10 µM, first compound 0.03 µM) was 55%. For the same molecule, the viability, T/C (second compound 10 µM, first compound 0.0949 µM) was 49.2% and the viability, T/C (second compound 10 µM, first compound 0.3 µM) was 45.6%.
Work on Cn1ncnc1[C@H]1c2n[nH]c(=O)c3cc(F)cc(c23)N[C@@H]1c1ccc(F)cc1 + CNC(C)C(=O)NC1CN(S(=O)(=O)c2cccc(S(=O)(=O)N3CCC4CCC(C(=O)NC(c5ccccc5)c5ccccc5)N4C(=O)C(NC(=O)C(C)NC)C3)c2)CCC2CCC(C(=O)NC(c3ccccc3)c3ccccc3)N2C1=O yielded an IC50 (second compound 0.01 µM) of over 100 nM, an IC50 (second compound 0.0316 µM) of over 100 nM and an IC50 (second compound 0.1 µM) of over 100 nM. The IC50 (second compound 0.316 µM) was over 100 nM, the IC50 (second compound 1 µM) was over 100 nM and the viability, T/C (second compound 0.01 µM, first compound 0.000316 µM) was 69.2%. For the same molecule, the viability, T/C (second compound 0.01 µM, first compound 0.001 µM) was 69.1%, the viability, T/C (second compound 0.01 µM, first compound 0.00316 µM) was 80.4% and the viability, T/C (second compound 0.01 µM, first compound 0.01 µM) was 83.8%. For the same molecule, the viability, T/C (second compound 0.01 µM, first compound 0.0316 µM) was 71.4%, the viability, T/C (second compound 0.01 µM, first compound 0.1 µM) was 72.9% and the viability, T/C (second compound 0.0316 µM, first compound 0.000316 µM) was 84.4%. For the same molecule, the viability, T/C (second compound 0.0316 µM, first compound 0.001 µM) was 98.2%, the viability, T/C (second compound 0.0316 µM, first compound 0.00316 µM) was 79.2% and the viability, T/C (second compound 0.0316 µM, first compound 0.01 µM) was 77%. For the same molecule, the viability, T/C (second compound 0.0316 µM, first compound 0.0316 µM) was 89.9%, the viability, T/C (second compound 0.0316 µM, first compound 0.1 µM) was 88.8% and the viability, T/C (second compound 0.1 µM, first compound 0.000316 µM) was 92.7%. For the same molecule, the viability, T/C (second compound 0.1 µM, first compound 0.001 µM) was 73.7%, the viability, T/C (second compound 0.1 µM, first compound 0.00316 µM) was 65.5% and the viability, T/C (second compound 0.1 µM, first compound 0.01 µM) was 69.2%. It also gave a viability, T/C (second compound 0.1 µM, first compound 0.0316 µM) of 69.2%, a viability, T/C (second compound 0.1 µM, first compound 0.1 µM) of 62.2% and a viability, T/C (second compound 0.316 µM, first compound 0.000316 µM) of 76.3%. It also gave a viability, T/C (second compound 0.316 µM, first compound 0.001 µM) of 74%, a viability, T/C (second compound 0.316 µM, first compound 0.00316 µM) of 63.8% and a viability, T/C (second compound 0.316 µM, first compound 0.01 µM) of 74%. It also gave a viability, T/C (second compound 0.316 µM, first compound 0.0316 µM) of 77.4%, a viability, T/C (second compound 0.316 µM, first compound 0.1 µM) of 69.9% and a viability, T/C (second compound 1 µM, first compound 0.000316 µM) of 78.8%. The viability, T/C (second compound 1 µM, first compound 0.001 µM) was 77.6%, the viability, T/C (second compound 1 µM, first compound 0.00316 µM) was 71.1% and the viability, T/C (second compound 1 µM, first compound 0.01 µM) was 69.5%. It also gave a viability, T/C (second compound 1 µM, first compound 0.0316 µM) of 71.8% and a viability, T/C (second compound 1 µM, first compound 0.1 µM) of 67%.
NC(=O)C(=Cn1cnc(-c2cc(C(F)(F)F)cc(C(F)(F)F)c2)n1)c1cncnc1 + CNC(C)C(=O)NC1CN(S(=O)(=O)c2cccc(S(=O)(=O)N3CCC4CCC(C(=O)NC(c5ccccc5)c5ccccc5)N4C(=O)C(NC(=O)C(C)NC)C3)c2)CCC2CCC(C(=O)NC(c3ccccc3)c3ccccc3)N2C1=O gave an IC50 (second compound 0.01 µM) of over 300 nM, an IC50 (second compound 0.0316 µM) of over 300 nM and an IC50 (second compound 0.1 µM) of over 300 nM. It also gave an IC50 (second compound 0.316 µM) of over 300 nM, an IC50 (second compound 1 µM) of over 300 nM and a viability, T/C (second compound 0.01 µM, first compound 0.000949 µM) of 93%. It also gave a viability, T/C (second compound 0.01 µM, first compound 0.003 µM) of 85.2%, a viability, T/C (second compound 0.01 µM, first compound 0.00949 µM) of 63.7% and a viability, T/C (second compound 0.01 µM, first compound 0.03 µM) of 66.8%. For the same molecule, the viability, T/C (second compound 0.01 µM, first compound 0.0949 µM) was 90.1%, the viability, T/C (second compound 0.01 µM, first compound 0.3 µM) was 72.6% and the viability, T/C (second compound 0.0316 µM, first compound 0.000949 µM) was 105%. The viability, T/C (second compound 0.0316 µM, first compound 0.003 µM) was 86%, the viability, T/C (second compound 0.0316 µM, first compound 0.00949 µM) was 87.9% and the viability, T/C (second compound 0.0316 µM, first compound 0.03 µM) was 79.2%. For the same molecule, the viability, T/C (second compound 0.0316 µM, first compound 0.0949 µM) was 75.7%, the viability, T/C (second compound 0.0316 µM, first compound 0.3 µM) was 82% and the viability, T/C [1] was 70.7%. For the same molecule, the viability, T/C [2] was 79.5%, the viability, T/C [3] was 76.1% and the viability, T/C [4] was 50%. It also gave a viability, T/C [5] of 64.1%, a viability, T/C [6] of 63.3% and a viability, T/C [7] of 76.5%. For the same molecule, the viability, T/C [8] was 75.8%, the viability, T/C [9] was 71.7% and the viability, T/C [10] was 65.8%. For the same molecule, the viability, T/C [11] was 65.3%, the viability, T/C [12] was 62.2% and the viability, T/C [13] was 76.9%. It also gave a viability, T/C [14] of 73%, a viability, T/C [15] of 66.7% and a viability, T/C [16] of 63%. For the same molecule, the viability, T/C [17] was 59.7% and the viability, T/C [18] was 53.3%.
